Laboratory results from patent publication US6479501B2 (priority 1996, dated 2002).
Structures can show the parent of a compound that is named as a salt. Where two headings read alike, the source gives them in different places.

Tests used:
Monoamine Oxidase A = target: T1, Monoamine Oxidase A (Rattus norvegicus, UniProt P21396); test: in vitro inhibition of monoamine oxidase assay, monoamine oxidase-A; assay type: biochemical, Male Wistar rats; details: rat brain mitochondrial monoamine oxidase; substrate [3H]-5-hydroxytryptamine 200 μM; 30 minutes at 37° C.
T1 construct: serves as the tissue source for mitochondrial monoamine oxidase; from tissue; host or cells: rat whole brain minus cerebellum, P2 mitochondrial pellet
T1 sequence (P21396 1-526): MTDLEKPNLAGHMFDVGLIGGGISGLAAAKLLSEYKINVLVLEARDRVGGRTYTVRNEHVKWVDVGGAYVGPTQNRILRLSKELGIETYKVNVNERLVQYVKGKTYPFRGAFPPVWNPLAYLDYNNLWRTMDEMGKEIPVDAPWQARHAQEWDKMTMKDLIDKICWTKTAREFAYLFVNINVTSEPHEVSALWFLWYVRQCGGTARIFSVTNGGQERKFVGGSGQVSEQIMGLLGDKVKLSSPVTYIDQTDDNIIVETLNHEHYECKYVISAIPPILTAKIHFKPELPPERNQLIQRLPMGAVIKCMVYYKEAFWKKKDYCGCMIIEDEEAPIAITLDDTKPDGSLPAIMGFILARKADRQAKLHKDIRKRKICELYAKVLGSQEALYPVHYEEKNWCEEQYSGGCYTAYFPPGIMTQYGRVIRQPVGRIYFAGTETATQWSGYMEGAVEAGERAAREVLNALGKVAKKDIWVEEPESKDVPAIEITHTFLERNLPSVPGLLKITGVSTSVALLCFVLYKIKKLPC
Description: In this assay, a modification of an assay described by M. V. Kindt, et al., Europ. J. Pharmnacol. 146: 313-318 1988.
1. Phosphate buffer (0.5 M), pH 7.4; 134.4 g dibasic sodium phosphate heptahydrate q.s. to 1 liter in distilled water (A) 17.3 g monobasic sodium phosphate q.s. to 250 ml in distilled water (B) Adjust pH of A to 7.4 by slowly adding B (volumes as needed) Dilute 1:10 in distilled water (0.05 M phosphate buffer, pH 7.4) 2. 0.25 M Sucrose (phosphate buffered): 21.4 g sucrose, q.s. to 250 nil with 0.05 M phosphate buffer a. serotonin creatine sulphate (5-hydroxytryptamine) is obtained from Sigma Chemical Company. A 5 mM stock solution ig made up in 0.01 N-hydrochloric acid. The solution is used to dilute the specific activity of the [^3H]-hydroxytryptamine. […]
b. [^3H]-5-hydroxytryptamine binoxalate (20-30 Ci/mmol) is obtained from New England Nuclear. c. Add 12 μl of [^3H]-5-hydroxytryptamine to 2 ml of the 5 mM 5-hydroxytryptamine solution. (Final amine concentration in the assay is 200 μM: see below.)
5. Equal amounts of monoamine oxidase-A (5-hydroxyttyptamine) and monoamine oxidase-B (β-phenethylamine) substrates are combined for simultaneously testing both monoamine oxidase types, i.e., mixed stock solution of 2.5 mM 5-hydroxytryptamine and 2.5 mM β-phenethylamine. 40 μl of this mixed solution gives a 200 μM final concentration of each amine in the assay. When testing only one monoamine oxidase type, the individual 5 mM stock solutions must be diluted 1:1 with distilled water prior to adding 40 μl to the incubation mixture; i.e., same 200 μM final amine concentration.
6. Stock solutions of test drugs are made up in appropriate vehicles and serially diluted to give final concentrations ranging from 10^−7 to 10^−3 molar in the assay. […]
Tubes are preincubated for 15 minutes at 37° C. and the assay is started by adding 40 μl of combined substrate ([^3H]-5-hydroxytryptamine and [^14C]-β-phenethylamin) at 15 second intervals. […] Tissue blank values are determined by adding the acid before the radioactive substrate. […] IC50 values are determined by log-probit analysis.

Monoamine Oxidase B = target: T2, Monoamine Oxidase B (Rattus norvegicus, UniProt P19643); test: in vitro inhibition of monoamine oxidase assay, monoamine oxidase-B; assay type: biochemical, Male Wistar rats; details: rat brain mitochondrial monoamine oxidase; substrate [14C]-β-phenethylamine 200 μM; 30 minutes at 37° C.
T2 construct: serves as the tissue source for mitochondrial monoamine oxidase; from tissue; host or cells: rat whole brain minus cerebellum, P2 mitochondrial pellet
T2 sequence (P19643 1-520): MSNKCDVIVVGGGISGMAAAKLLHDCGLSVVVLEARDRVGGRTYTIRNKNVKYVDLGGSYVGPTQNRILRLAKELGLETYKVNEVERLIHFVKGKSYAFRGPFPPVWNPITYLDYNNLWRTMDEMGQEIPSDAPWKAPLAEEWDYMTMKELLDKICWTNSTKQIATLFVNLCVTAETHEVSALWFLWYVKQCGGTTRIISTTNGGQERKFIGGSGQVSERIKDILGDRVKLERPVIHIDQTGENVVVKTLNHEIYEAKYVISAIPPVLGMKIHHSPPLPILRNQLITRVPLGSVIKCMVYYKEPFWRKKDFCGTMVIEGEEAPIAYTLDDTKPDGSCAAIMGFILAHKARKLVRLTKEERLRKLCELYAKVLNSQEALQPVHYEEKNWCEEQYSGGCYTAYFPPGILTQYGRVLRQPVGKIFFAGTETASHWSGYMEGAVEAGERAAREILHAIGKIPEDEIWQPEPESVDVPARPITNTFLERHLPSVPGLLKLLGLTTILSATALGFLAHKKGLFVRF
Description: Phosphate buffer (0.5 M), pH 7.4; 134.4 g dibasic sodium phosphate heptahydrate q.s. to 1 liter in distilled water (A) 17.3 g monobasic sodium phosphate q.s. to 250 ml in distilled water (B) Adjust pH of A to 7.4 by slowly adding B (volumes as needed) Dilute 1:10 in distilled water (0.05 M phosphate buffer, pH 7.4) 2. 0.25 M Sucrose (phosphate buffered): 21.4 g sucrose, q.s. to 250 nil with 0.05 M phosphate buffer a. β-phenethylamine is obtained from Sigma Chemical Company. A 5 mM stock solution is made up in 0.01 N-hydrochloric acid. The solution is used to dilute the specific activity of the [^14C]-β-phenethylamine.
b. β-[ethyl-1-^14C]-phenethylamine hydrochloride (40-50 mCi/mmol) is obtained from New England Nuclear. c. Add 12 μl of [^14C]-β-phenothylaamine to 2 ml of the 5 mM β-phenethylamine solution. (Final amine concentration in the assay is 200 μM: see below.) […]

Acetylcholinesterase = target: T3, Acetylcholinesterase (Rattus norvegicus, UniProt P37136); test: biochemical; design: species or system Male Wistar rats
T3 construct: corpora striata dissected free, weighted and homogenized in 19 volumes; from tissue; host or cells: rat corpus striatum homogenate
T3 sequence (P37136 32-614): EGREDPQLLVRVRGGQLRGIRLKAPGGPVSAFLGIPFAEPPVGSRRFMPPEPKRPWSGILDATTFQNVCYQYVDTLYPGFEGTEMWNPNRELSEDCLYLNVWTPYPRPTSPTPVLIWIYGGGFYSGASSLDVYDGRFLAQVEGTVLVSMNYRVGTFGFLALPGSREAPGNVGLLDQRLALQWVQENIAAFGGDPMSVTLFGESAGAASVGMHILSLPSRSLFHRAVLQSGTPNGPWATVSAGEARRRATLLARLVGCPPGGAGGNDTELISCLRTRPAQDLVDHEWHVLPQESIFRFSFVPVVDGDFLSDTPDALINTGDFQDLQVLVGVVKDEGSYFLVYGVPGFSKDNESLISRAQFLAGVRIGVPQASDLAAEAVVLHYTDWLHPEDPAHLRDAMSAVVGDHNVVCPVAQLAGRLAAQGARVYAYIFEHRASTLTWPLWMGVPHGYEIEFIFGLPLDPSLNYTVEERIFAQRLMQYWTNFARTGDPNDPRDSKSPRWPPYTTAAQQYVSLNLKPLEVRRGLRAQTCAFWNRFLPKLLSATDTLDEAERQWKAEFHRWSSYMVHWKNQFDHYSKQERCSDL

| Structure (SMILES) | IC50 (Monoamine Oxidase A) [µM] | IC50 (Acetylcholinesterase) [µM] | further results |
| --- | --- | --- | --- |
| COc1ccc(NN=C2CCCC23CCNCC3)cc1 (as salt: hydrochloride) [8-Azaspiror4,5]decane-1-[N′-(4-methoxy)phenyl]hydrazone hydrochloride] |  |  | melting point: 252 to 253 °C |
| COc1cccc(CN2CCC3(CCc4c3n(C)c3ccccc43)CC2)c1 [1,4-Dihydro-1′-(3-methoxyphenyl)methyl-4-methylspiro[cyclopent[b]indole-3(2H), 4′piperidine]] | 51.2 |  |  |
| COc1ccc(CN2CCC3(CCc4c3n(C)c3ccccc43)CC2)cc1 [1,4-Dihydro-1′-(4-methoxyphenyl)methyl-4-methylspiro[cyclopent[b]indole-3(2H), 4′-piperidine]] | 98.6 |  | IC50 (Monoamine Oxidase B): 125 µM; IC50 (Acetylcholinesterase; read-out: Inhibition of Acetylcholinesterase Activity IC50): 65.2 µM |
| Cn1c2c(c3ccccc31)CCC21CCNCC1 [1,4-Dihydro-4-methylspiro[cyclopent[b]indole-3(2H), 4′-piperidine]hydrochloride] |  | 84.1 |  |
| CN(C)C(=O)Oc1ccc2c(c1)c1c(n2C)C2(CCNCC2)CC1 [1,4-Dihydro-7-dimethylaminocarbonyloxy-4-methylspirorcyclopentfblindole-3(2H), 4′-piperidine]hemihydrate] |  | 64 |  |
| Cn1c2c(c3cc(O)ccc31)CCC21CCN(Cc2ccccc2)CC1 [1,4-Dihydro-7-hydroxy-4-methyl-1′-phenylmethylspiro[cyclopent[b]indole-3(2H), 4′-piperidine hydrochloride] |  | 20.4 |  |
| COc1ccc(NN=C2CCCC23CCNCC3)cc1 [8-Azaspiror4,5]decane-1-[N′-(4-methoxy)phenyl]hydrazone hydrochloride] | 37.2 |  | IC50 (Monoamine Oxidase B): 3.7 µM |
